Laboratory results: PubChem BioAssay AID248 (DTP/NCI, 2004)
Values joined by “and” are separate entries in the source; they are usually repeats but may differ in a detail not shown here. Equal entries are not always repeated. Toxic doses and inconclusive results are not listed. Rule as the data show it: active = T/C of 150% or more; inactive = T/C below 125%.

Tested on: L1210 leukemia ip in BDF1 mice, survival T/C
Assay: NCI In Vivo Anticancer Drug Screen. Data for tumor model L1210 Leukemia (intraperitoneal) in B6D2F1 (BDF1) mice
Conditions: endpoint: mean survival time, higher = longer survival
How it was run: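 Tumor was transplanted into mice, which were then dosed with test compound or vehicle alone. Survival was recorded for each group, and the treated figure was expressed relative to the control figure.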

[1] = dose: 100.0 mg/kg/injection, schedule: Q01DX009 (ip), vehicle: other
[2] = dose: 200.0 mg/kg/injection, schedule: Q01DX009 (ip), vehicle: other
[3] = dose: 400.0 mg/kg/injection, schedule: Q04DX002 (ip), vehicle: saline with Tween-80
[4] = dose: 100.0 mg/kg/injection, schedule: Q01DX001 (ip), vehicle: carboxymethylcellulose (CMC)
[5] = dose: 200.0 mg/kg/injection, schedule: Q01DX001 (ip), vehicle: carboxymethylcellulose (CMC)
[6] = dose: 400.0 mg/kg/injection, schedule: Q01DX001 (ip), vehicle: carboxymethylcellulose (CMC)
[7] = dose: 75.0 mg/kg/injection, schedule: Q01DX001 (ip), vehicle: saline
[8] = dose: 400.0 mg/kg/injection, schedule: Q01DX009 (ip), vehicle: other
[9] = dose: 100.0 mg/kg/injection, schedule: Q01DX001 (ip), vehicle: saline
[10] = dose: 200.0 mg/kg/injection, schedule: Q01DX001 (ip), vehicle: saline
[11] = dose: 400.0 mg/kg/injection, schedule: Q01DX001 (ip), vehicle: saline

Measured: T/C

CC(=O)c1ccc(N)cc1
inactive: [1] 94 % of control | dose: 100.0 mg/kg/injection, schedule: Q04DX002 (ip), vehicle: other 100 % of control | [2] 102 % of control | dose: 200.0 mg/kg/injection, schedule: Q04DX002 (ip), vehicle: other 117 % of control | dose: 400.0 mg/kg/injection, schedule: Q04DX002 (ip), vehicle: other 114 % of control

CP1(=S)CCC(O)(c2ccccc2)CC1 (centres undefined)
inactive: [3] 88 % of control

N#CCCNC(CO)C(=O)O (centres undefined)
inactive: [4] 94 % of control | [5] 92 % of control | [6] 89 % of control

O=C(c1ccccc1)c1ccc[n+](Cc2c(Cl)cccc2Cl)c1
inactive: [7] 101 % of control

CCOC(=O)C[P+](c1ccc(OC)cc1)(c1ccc(OC)cc1)c1ccc(OC)cc1
inactive: dose: 30.0 mg/kg/injection, schedule: Q01DX001 (ip), vehicle: carboxymethylcellulose (CMC) 90 % of control

COc1ccccc1NC(=O)OCc1ccco1
inactive: [1] 106 % of control | [2] 101 % of control | [8] 104 % of control

Cc1c(I)sc(I)c1I
inactive: [4] 94 % of control | [5] 94 % of control | [6] 100 % of control

CCOc1ccccc1NC(=O)CC(C)=O
inactive: dose: 100.0 mg/kg/injection, schedule: Q01DX009 (ip), vehicle: Klucel (hydroxypropylcellulose) (HPC) 89 % of control | dose: 200.0 mg/kg/injection, schedule: Q01DX009 (ip), vehicle: Klucel (hydroxypropylcellulose) (HPC) 88 % of control | dose: 400.0 mg/kg/injection, schedule: Q01DX009 (ip), vehicle: Klucel (hydroxypropylcellulose) (HPC) 93 % of control

COc1ccc(C)cc1NC(C)=O
inactive: [9] 98 % of control | [10] 100 % of control | [11] 98 % of control

O=C(C(Cl)Cl)C(Cl)Cl
inactive: dose: 10.0 mg/kg/injection, schedule: Q01DX001 (ip), vehicle: carboxymethylcellulose (CMC) 106 % of control

Oc1ccc(Br)cc1C=Nc1cnc2ccccc2c1
inactive: [4] 90 % of control | [5] 90 % of control

CCOCC(=O)C(C#N)c1ccc(Cl)c(Cl)c1 (centres undefined)
inactive: [4] 94 % of control

CSCCC(NC(=O)C(C)N)C(=O)O (centres undefined)
inactive: [9] 90 % of control | [10] 92 % of control | [11] 101 % of control

COCCN(CCOC)C(=O)Nc1cccc(Cl)c1
inactive: dose: 100.0 mg/kg/injection, schedule: Q04DX002 (ip), vehicle: saline with Tween-80 90 % of control | dose: 200.0 mg/kg/injection, schedule: Q04DX002 (ip), vehicle: saline with Tween-80 100 % of control | [3] 106 % of control

CC[N+](CC)(CC)CCNC(C)=O
inactive: dose: 100.0 mg/kg/injection, schedule: Q01DX009 (ip), vehicle: saline 111 % of control | dose: 200.0 mg/kg/injection, schedule: Q01DX009 (ip), vehicle: saline 100 % of control | dose: 400.0 mg/kg/injection, schedule: Q01DX009 (ip), vehicle: saline 105 % of control

O=C(CC1C(=O)Nc2ccccc21)CC1C(=O)Nc2ccccc21 (centres undefined)
inactive: dose: 100.0 mg/kg/injection, schedule: Q04DX002 (ip), vehicle: Klucel (hydroxypropylcellulose) (HPC) 102 % of control | dose: 200.0 mg/kg/injection, schedule: Q04DX002 (ip), vehicle: Klucel (hydroxypropylcellulose) (HPC) 97 % of control | dose: 400.0 mg/kg/injection, schedule: Q04DX002 (ip), vehicle: Klucel (hydroxypropylcellulose) (HPC) 102 % of control

COC(=O)CC(N)C(=O)OC (centres undefined)
inactive: [9] 89 % of control | [10] 86 % of control | [11] 90 % of control

CC(=O)OC1CCC(OC(C)=O)C(C#N)(C#N)C1(C#N)C#N (centres undefined)
inactive: dose: 100.0 mg/kg/injection, schedule: Q04DX003 (ip), vehicle: saline with Tween-80 104 % of control | dose: 200.0 mg/kg/injection, schedule: Q04DX003 (ip), vehicle: saline with Tween-80 93 % of control

O=C1CC(=O)N(c2ccccc2)C(=O)N1
inactive: dose: 50.0 mg/kg/injection, schedule: Q01DX009 (ip), vehicle: saline with Tween-80 99 % of control | dose: 100.0 mg/kg/injection, schedule: Q01DX009 (ip), vehicle: saline with Tween-80 99 % of control | dose: 200.0 mg/kg/injection, schedule: Q01DX009 (ip), vehicle: saline with Tween-80 99 % of control

CS(=O)(=O)N(CC(=O)O)Cc1cccnc1
inactive: [1] 101 % of control | dose: 100.0 mg/kg/injection, schedule: Q04DX003 (ip), vehicle: other 106 % of control | [2] 101 % of control | dose: 200.0 mg/kg/injection, schedule: Q04DX003 (ip), vehicle: other 93 % of control | [8] 105 % of control | dose: 400.0 mg/kg/injection, schedule: Q04DX003 (ip), vehicle: other 95 % of control

OCCN1CCN(CC/C=C2\c3ccccc3Sc3ccc(Cl)cc32)CC1
inactive: dose: 0.39 mg/kg/injection, schedule: Q03HX024 (ip), vehicle: saline 100 % of control | dose: 0.78 mg/kg/injection, schedule: Q03HX024 (ip), vehicle: saline 94 % of control | dose: 1.0 mg/kg/injection, schedule: Q01DX009 (ip), vehicle: saline 101 % of control and 87 % of control | dose: 1.56 mg/kg/injection, schedule: Q03HX024 (ip), vehicle: saline 107 % of control | dose: 2.0 mg/kg/injection, schedule: Q01DX009 (ip), vehicle: saline 95 % of control and 103 % of control | dose: 3.12 mg/kg/injection, schedule: Q01DX009 (ip), vehicle: saline 104 % of control | dose: 3.12 mg/kg/injection, schedule: Q03HX024 (ip), vehicle: saline 111 % of control | dose: 3.12 mg/kg/injection, schedule: Q04DX003 (ip), vehicle: saline 106 % of control | dose: 4.0 mg/kg/injection, schedule: Q01DX009 (ip), vehicle: saline 100 % of control and 106 % of control | dose: 6.25 mg/kg/injection, schedule: Q01DX009 (ip), vehicle: saline 120 % of control | dose: 6.25 mg/kg/injection, schedule: Q04DX003 (ip), vehicle: saline 100 % of control and 105 % of control | dose: 8.0 mg/kg/injection, schedule: Q01DX009 (ip), vehicle: saline 106 % of control and 115 % of control | dose: 9.37 mg/kg/injection, schedule: Q01DX001 (ip), vehicle: saline 106 % of control | dose: 12.5 mg/kg/injection, schedule: Q01DX009 (ip), vehicle: saline 120 % of control and 86 % of control | dose: 12.5 mg/kg/injection, schedule: Q04DX003 (ip), vehicle: saline 108 % of control and 116 % of control | dose: 16.0 mg/kg/injection, schedule: Q01DX009 (ip), vehicle: saline 115 % of control and 89 % of control | dose: 18.75 mg/kg/injection, schedule: Q01DX001 (ip), vehicle: saline 100 % of control | dose: 20.0 mg/kg/injection, schedule: Q04DX003 (ip), vehicle: saline 115 % of control | dose: 25.0 mg/kg/injection, schedule: Q01DX009 (ip), vehicle: saline 124 % of control | dose: 25.0 mg/kg/injection, schedule: Q04DX003 (ip), vehicle: saline 119 % of control | dose: 37.5 mg/kg/injection, schedule: Q01DX001 (ip), vehicle: saline 105 % of control | dose: 40.0 mg/kg/injection, schedule: Q04DX003 (ip), vehicle: saline 105 % of control | [7] 105 % of control

CCC(=O)OC1CCC2(C)C(=CCC3C2CCC2(C)C(C(C)CCCC(C)C)CCC32)C1 (centres undefined)
inactive: dose: 100.0 mg/kg/injection, schedule: Q01DX001 (ip), vehicle: other 91 % of control | dose: 200.0 mg/kg/injection, schedule: Q01DX001 (ip), vehicle: other 91 % of control

CC[n+]1csc2ccccc21
inactive: [7] 102 % of control | dose: 150.0 mg/kg/injection, schedule: Q01DX001 (ip), vehicle: saline 105 % of control | dose: 300.0 mg/kg/injection, schedule: Q01DX001 (ip), vehicle: saline 97 % of control

O=NN(C(=O)NC1CCCCC1)C1CCCCC1
inactive: [4] 106 % of control | [5] 106 % of control | dose: 300.0 mg/kg/injection, schedule: Q01DX001 (ip), vehicle: carboxymethylcellulose (CMC) 106 % of control | [6] 109 % of control | dose: 500.0 mg/kg/injection, schedule: Q01DX001 (ip), vehicle: carboxymethylcellulose (CMC) 112 % of control

CCCCOC(=O)Cc1cccc2ccccc12
inactive: dose: 222.0 mg/kg/injection, schedule: Q01DX Z (ip), vehicle: methylcellulose (MC) 102 % of control | dose: 333.0 mg/kg/injection, schedule: Q01DX Z (ip), vehicle: methylcellulose (MC) 110 % of control | dose: 500.0 mg/kg/injection, schedule: Q01DX Z (ip), vehicle: methylcellulose (MC) 104 % of control
